Laboratory results reported in patent publication US20240246992A1, “MACROCYCLIC LRRK2 KINASE INHIBITORS” (LES LABORATOIRES SERVIER, priority 2021, published 2024).
pIC50: −log10 of the molar value.

Biological target: human recombinant LRRK2 protein (Homo sapiens, UniProt Q5S007)
Experiment: LRRK2 kinase activity assay (ADP-Glo, LRRKtide peptide)
Type: biochemical
Settings: human recombinant LRRK2 wt, LRRKtide peptide and ATP, 1 h at 37° C.
Outline: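 ADP-Glo luminescence read-out of a peptide assay: compound, ATP and LRRKtide substrate combined with recombinant human LRRK2 and incubated at 37 °C for 1 h. Ten-point data, N=2, curve-fitted to IC50.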

Chain of human recombinant LRRK2 protein (Q5S007 whole entry): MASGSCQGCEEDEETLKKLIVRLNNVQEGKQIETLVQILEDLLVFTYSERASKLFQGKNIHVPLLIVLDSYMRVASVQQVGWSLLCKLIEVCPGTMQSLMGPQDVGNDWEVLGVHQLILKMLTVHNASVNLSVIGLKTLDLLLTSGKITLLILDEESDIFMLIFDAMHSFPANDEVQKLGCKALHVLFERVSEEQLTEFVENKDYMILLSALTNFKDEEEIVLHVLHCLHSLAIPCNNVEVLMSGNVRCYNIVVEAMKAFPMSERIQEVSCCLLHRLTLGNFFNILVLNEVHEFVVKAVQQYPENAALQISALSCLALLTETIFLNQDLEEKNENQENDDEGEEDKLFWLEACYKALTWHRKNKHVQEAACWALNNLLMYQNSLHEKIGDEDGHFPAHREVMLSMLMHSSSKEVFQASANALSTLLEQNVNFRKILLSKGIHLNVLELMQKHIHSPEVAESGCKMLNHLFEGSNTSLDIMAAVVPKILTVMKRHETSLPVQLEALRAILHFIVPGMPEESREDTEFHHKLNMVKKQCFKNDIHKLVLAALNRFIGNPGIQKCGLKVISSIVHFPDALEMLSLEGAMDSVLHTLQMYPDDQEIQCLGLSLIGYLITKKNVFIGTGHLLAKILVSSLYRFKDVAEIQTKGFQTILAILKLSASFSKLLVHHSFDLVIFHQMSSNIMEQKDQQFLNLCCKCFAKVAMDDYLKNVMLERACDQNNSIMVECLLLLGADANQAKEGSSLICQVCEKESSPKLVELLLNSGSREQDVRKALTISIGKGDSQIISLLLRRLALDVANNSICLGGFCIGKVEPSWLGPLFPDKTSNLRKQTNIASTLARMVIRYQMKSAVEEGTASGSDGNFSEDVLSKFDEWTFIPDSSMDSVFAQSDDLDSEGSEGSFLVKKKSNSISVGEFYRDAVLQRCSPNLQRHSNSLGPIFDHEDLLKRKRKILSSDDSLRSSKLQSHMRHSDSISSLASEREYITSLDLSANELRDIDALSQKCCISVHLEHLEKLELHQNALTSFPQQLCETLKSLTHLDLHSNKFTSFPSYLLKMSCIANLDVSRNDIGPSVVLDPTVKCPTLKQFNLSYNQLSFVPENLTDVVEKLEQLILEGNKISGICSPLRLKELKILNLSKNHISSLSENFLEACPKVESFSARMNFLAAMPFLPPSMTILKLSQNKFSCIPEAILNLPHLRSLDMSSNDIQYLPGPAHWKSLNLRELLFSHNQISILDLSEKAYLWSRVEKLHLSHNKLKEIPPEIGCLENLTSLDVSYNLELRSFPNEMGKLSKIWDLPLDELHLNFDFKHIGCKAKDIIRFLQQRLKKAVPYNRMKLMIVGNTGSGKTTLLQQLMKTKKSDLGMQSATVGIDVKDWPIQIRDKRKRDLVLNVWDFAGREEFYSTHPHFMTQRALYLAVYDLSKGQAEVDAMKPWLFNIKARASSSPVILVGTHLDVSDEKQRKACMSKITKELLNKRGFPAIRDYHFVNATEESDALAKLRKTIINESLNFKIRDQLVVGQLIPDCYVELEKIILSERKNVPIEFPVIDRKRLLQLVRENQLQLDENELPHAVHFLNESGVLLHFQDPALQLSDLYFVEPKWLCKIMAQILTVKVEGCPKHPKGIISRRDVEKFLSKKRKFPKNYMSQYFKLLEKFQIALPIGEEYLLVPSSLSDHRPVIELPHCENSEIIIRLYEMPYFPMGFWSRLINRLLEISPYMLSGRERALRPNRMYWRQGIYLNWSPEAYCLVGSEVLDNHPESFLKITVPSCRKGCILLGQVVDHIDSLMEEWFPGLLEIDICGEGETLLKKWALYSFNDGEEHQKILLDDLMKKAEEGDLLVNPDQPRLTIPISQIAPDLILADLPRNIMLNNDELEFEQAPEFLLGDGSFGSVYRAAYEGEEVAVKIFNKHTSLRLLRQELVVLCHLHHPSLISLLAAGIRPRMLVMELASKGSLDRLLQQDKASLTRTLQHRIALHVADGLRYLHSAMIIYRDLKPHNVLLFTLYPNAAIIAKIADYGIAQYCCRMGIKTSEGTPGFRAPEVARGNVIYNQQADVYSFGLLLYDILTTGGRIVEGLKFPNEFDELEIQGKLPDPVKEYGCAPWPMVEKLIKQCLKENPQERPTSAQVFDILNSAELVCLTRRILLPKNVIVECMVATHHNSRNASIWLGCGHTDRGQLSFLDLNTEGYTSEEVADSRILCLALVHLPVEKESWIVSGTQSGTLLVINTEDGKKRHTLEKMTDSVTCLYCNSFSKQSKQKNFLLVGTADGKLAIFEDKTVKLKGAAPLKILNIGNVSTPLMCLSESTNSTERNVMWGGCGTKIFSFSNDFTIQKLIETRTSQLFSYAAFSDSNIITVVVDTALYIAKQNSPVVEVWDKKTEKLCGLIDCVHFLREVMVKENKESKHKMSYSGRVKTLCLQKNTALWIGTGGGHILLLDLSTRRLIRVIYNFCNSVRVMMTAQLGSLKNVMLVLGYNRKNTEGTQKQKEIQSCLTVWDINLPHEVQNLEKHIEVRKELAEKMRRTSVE

| pIC50 | Compound |
| --- | --- |
| > 8.00 | C[C@@H]1COc2ccc3[nH]nc(c3c2)-c2cccc(c2)OCCN[C@@H]1C [Example 228, (11R,12S)-11,12-dimethyl-7,14-dioxa-10,19,20-triazatetracyclo[13.5.2.1^2,6.0^18,21]tricosa-1(20),2,4,6(23),15(22),16,18(21)-heptaene] |
| > 7.00 | C[C@H]1NCCOc2cccc(c2)-c2n[nH]c3ccc(cc23)OC[C@@H]1F [Example 231, (11R,12R)-12-fluoro-11-methyl-7,14-dioxa-10,19,20-triazatetracyclo[13.5.2.1^2,6.0^18,21]tricosa-1(20),2,4,6(23),15(22),16,18(21)-heptaene] |
| > 8.00 | C[C@H]1CCNCCOc2cncc(c2)-c2n[nH]c3ccc(cc23)O1 [Example 232, (13S)-13-methyl-7,14-dioxa-4,10,19,20-tetraazatetracyclo[13.5.2.1^2,6.0^18,21]tricosa-1(20),2,4,6(23),15(22),16,18(21)-heptaene] |
| > 8.00 | C[C@H]1CCNCCCn2cc(cn2)-c2n[nH]c3ccc(cc23)O1 [Example 233, (12S)-12-methyl-13-oxa-4,5,9,18,19-pentaazatetracyclo [12.5.2.1^2,5.0^17,20] docosa-1(19),2(22),3,14(21),15,17(20)-hexaene] |
| > 8.00 | c1cc2[nH]nc3c2cc1OCCNCCCOc1cc-3cc(N2CCOCC2)c1 [Example 236, 4-(morpholin-4-yl)-7,14-dioxa-11,19,20-triazatetracyclo [13.5.2.1^2,6.0^18,21]tricosa-1(20),2,4,6(23),15,17,21-heptaene] |
| > 8.00 | c1cc2nc(c1)-c1n[nH]c3ccc(cc13)OCCCNCCO2 [Example 237, 7,14-dioxa-10,19,20,23-tetraazatetracyclo[13.5.2.1^2,6.0^18,21]tricosa-1(20),2,4,6(23),15,17,21-heptaene] |
| > 8.00 | c1ncc2cc1OCCCNCCOc1ccc3[nH]nc-2c3c1 [Example 238, 7,14-dioxa-4,11,19,20-tetraazatetracyclo[13.5.2.1^2,6.0^18,21]tricosa-1(20),2,4,6(23),15,17,21-heptaene] |
| > 7.00 | CC(C)Oc1cc2cc(c1)-c1n[nH]c3ccc(cc13)OCCCN(C)CCO2 [Example 239, 10-methyl-4-(propan-2-yloxy)-7,14-dioxa-10,19,20-triazatetracyclo[13.5.2.1^2,6.0^18,21]tricosa-1(20),2,4,6(23),15,17,21-heptaene] |
| > 8.00 | CC1CCOc2ccc3[nH]nc(c3c2)-c2cccc(n2)OCCN1 (centres unmarked) [Example 240, 11-methyl-7,14-dioxa-10,19,20,23-tetraazatetracyclo[13.5.2.1^2,6.0^18,21]tricosa-1(20),2,4,6(23),15,17,21-heptaene] |
| > 8.00 | C[C@@H]1CCNC(=O)C[C@H](C)n2ncc(n2)-c2n[nH]c3ccc(cc23)O1 [Example 242] |
| > 7.00 | C[C@@H]1CCN(C)C(=O)C[C@H](C)n2ncc(n2)-c2n[nH]c3ccc(cc23)O1 [Example 243] |
| > 7.00 | C[C@@H]1CCN(C)CC[C@H](C)n2ncc(n2)-c2n[nH]c3ccc(cc23)O1 [Example 244, (6S,12R)-6,9,12-trimethyl-13-oxa-4,5,9,18,19,22-hexaazatetracyclo[12.5.2.1^2,5.0^17,20]docosa-1(19),2(22),3,14(21),15,17(20)-hexaene] |
| > 8.00 | C[C@@H]1CCOCCCn2cc(cn2)-c2n[nH]c3cnc(cc23)O1 [Example 245, (12R)-12-methyl-9,13-dioxa-4,5,15,18,19-pentaaza tetracyclo[12.5.2.1^2,5.0^17,20]docosa-1(19),2(22),3,14(21),15,17(20)-hexaene] |
| > 7.00 | C[C@H]1COc2cc3c(n[nH]c3cn2)-c2cnn(c2)CCOCCO1 [Example 246] |
